Measurements taken from patent US20140357487A1, “PLANTS HAVING INCREASED TOLERANCE TO HERBICIDES” (BASF SE, priority 2011, published 2014).

Assays:
[1] = target: T1, Arabidopsis HPPD variant M335H, P336A (Arabidopsis thaliana, UniProt P93836, M335H/P336A); assay: HPPD activity assay, Arabidopsis HPPD mutant M335H, P336A; type: biochemical; settings: normalized on Arabidopsis wild-type HPPD
T1 construct: PCR-based site directed mutagenesis of pEXP5-NT/TOPO®-AtHPPD is done; His6 (N); made in house; host or cells: E. coli BL21 (DE3)
Protocol: HPPD produces homogentisic acid and CO2 from 4-hydroxyphenylpyruvate (4-HPP) and O2. The activity assay for HPPD is based on the analysis of homogentisic acid by reversed phase HPLC.
The assay mixture can contain 150 mM potassium phosphate buffer pH 7.0, 50 mM L-ascorbic acid, 1 μM FeSO4 and 7 μg of purified enzyme in a total volume of 1 ml.
Inhibitors are dissolved in DMSO (dimethylsulfoxide) to a concentration of 20 mM or 0.5 mM, respectively. From this stock solution serial five-fold dilutions are prepared in DMSO, which are used in the assay. The respective inhibitor solution accounts for 1% of the assay volume. […] After a preincubation of 30 min the reaction is started by adding 4-HPP to a final concentration of 0.1 mM. The reaction is allowed to proceed for 120 min at room temperature. The reaction is stopped by addition of 100 μl of 4.5 M phosphoric acid.
Activities are normalized by setting the uninhibited enzyme activity to 100%. IC50 values are calculated using non-linear regression.
The assay mixture can contain 150 mM potassium phosphate buffer pH 7.0, 50 mM L-ascorbic acid, 100 μM Catalase (Sigma-Aldrich), 1 μM FeSO4 and 0.2 units of purified HPPD enzyme in a total volume of 505 μl. 1 unit is defined as the amount of enzyme that is required to produce 1 nmol of HGA per minute at 20° C.
Inhibitors are dissolved in DMSO (dimethylsulfoxide) to a concentration of 0.5 mM. […] IC50 values are calculated using non-linear regression. […]
Purified, mutant HPPD enzymes are obtained by the methods described above. […] Apparent michaelis constants (Km) and maximal reaction velocities (Vmax) are calculated by non-linear regression with the software GraphPad Prism 5 (GraphPad Software, La Jolla, USA) using a substrate inhibition model.
Field performance of the optimized HPPD enzyme, which is used as a herbicide tolerance trait may depend not only on its lack of sensitivity towards HPPD inhibiting herbicides but also on its activity. To assess the potential performance of a herbicide tolerance trait a tolerance index (TI) is calculated using the following formula: […]

[2] = test system: transgenic soybean plants, Arabidopsis Q293S, event SDS-10204; assay: Greenhouse testing of transgenic soybean plants, Arabidopsis Q293S; type: in vivo, Glycine max; settings: soybean SDS-10204, 5 days after herbicide treatment, average of 8 T1
Text: (§1) Various methods for the production of stably transformed plants are well known in the art. Coumarone-derivative herbicide tolerant soybean (Glycine max) or corn (Zea mays) plants can be produced by a method described by Olhoft et al. (US patent 2009/0049567). Briefly, HPPD or HST encoding polynucleotides are cloned into a binary vector using standard cloning techniques as described by Sambrook et al. (Molecular cloning (2001) Cold Spring Harbor Laboratory Press). The final vector construct contains an HPPD or HST encoding sequence flanked by a promoter sequence (e.g. the ubiquitin promoter (PcUbi) sequence) and a terminator sequence (e.g. the nopaline synthase terminator (NOS) sequence) and a resistance marker gene cassette (e.g. AHAS) (FIG. 2). Optionally, the HPPD or HST gene can provide the means of selection. Agrobacterium-mediated transformation is used to introduce the DNA into soybean's axillary meristem cells at the primary node of seedling explants. After inoculation and co-cultivation with Agrobacteria, the explants are transferred to shoot induction medium without selection for one week. The explants are subsequently transferred to shoot induction medium with 1-3 μM imazapyr (Arsenal) for 3 weeks to select for transformed cells. Explants with healthy callus/shoot pads at the primary node are then transferred to shoot elongation medium containing 1-3 μM imazapyr until a shoot elongates or the explant dies. After regeneration, transformants are transplanted to soil in small pots, placed in growth chambers (16 hr day/8 hr night; 25° C. day/23° C. night; 65% relative humidity; 130-150 mE m−2 s−1) and subsequently tested for the presence of the T-DNA via Taqman analysis. After a few weeks, healthy, transgenic positive, single copy events are transplanted to larger pots and allowed to grow in the growth chamber. Transformation of corn plants is done by a method described by McElver and Singh (WO 2008/124495). Plant transformation vector constructs containing HPPD or HST sequences are introduced into maize immature embryos via Agrobacterium-mediated transformation. Transformed cells are selected in selection media supplemented with 0.5-1.5 μM imazethapyr for 3-4 weeks. Transgenic plantlets are regenerated on plant regeneration media and rooted afterwards. Transgenic plantlets are subjected to TaqMan analysis for the presence of the transgene before being transplanted to potting mixture and grown to maturity in greenhouse. Arabidopsis thaliana is transformed with HPPD or HST sequences by floral dip method as described by McElver and Singh (WO 2008/124495). Transgenic Arabidopsis plants are subjected to Tag Man analysis for analysis of the number of integration loci. Transformation of Oryza sativa (rice) are done by protoplast transformation as described by Peng et al. (U.S. Pat. No. 6,653,529)
(§2) Transgenic plants expressing heterologous HPPD or HST enzymes are tested for tolerance against coumarone-derivative herbicides in greenhouse experiments.
(§3) For post emergence treatment, the test plants are first grown to a height of 3 to 15 cm, depending on the plant habit, and only then treated with the herbicides. For this purpose, the test plants are either sown directly and grown in the same containers, or they are first grown separately and transplanted into the test containers a few days prior to treatment.
(§4) Depending on the species, the plants are kept at 10-25° C. or 20-35° C. The test period extends over 3 weeks. During this time, the plants are tended and their response to the individual treatments is evaluated. […] Tolerance to coumarone-derivative herbicides can also be assessed in Arabidopsis. In this case transgenic Arabidopsis thaliana plants are assayed for improved tolerance to coumarone-derivative herbicides in 48-well plates. Seeds are surface sterilized by stirring for 5 min in ethanol+water (70+30 by volume), rinsing one time with ethanol+water (70+30 by volume) and two times with a sterile, deionized water. […]

[3] = test system: transgenic corn plants, Arabidopsis HPPD, event SDM-71884; assay: Greenhouse testing of transgenic corn plants, Arabidopsis HPPD; type: in vivo, Zea mays; settings: corn SDM-71884, 5 days after herbicide treatment, average of 8 T1
Text: as §1, §2, §3, §4

T1 sequence (P93836 whole entry M335H/P336A): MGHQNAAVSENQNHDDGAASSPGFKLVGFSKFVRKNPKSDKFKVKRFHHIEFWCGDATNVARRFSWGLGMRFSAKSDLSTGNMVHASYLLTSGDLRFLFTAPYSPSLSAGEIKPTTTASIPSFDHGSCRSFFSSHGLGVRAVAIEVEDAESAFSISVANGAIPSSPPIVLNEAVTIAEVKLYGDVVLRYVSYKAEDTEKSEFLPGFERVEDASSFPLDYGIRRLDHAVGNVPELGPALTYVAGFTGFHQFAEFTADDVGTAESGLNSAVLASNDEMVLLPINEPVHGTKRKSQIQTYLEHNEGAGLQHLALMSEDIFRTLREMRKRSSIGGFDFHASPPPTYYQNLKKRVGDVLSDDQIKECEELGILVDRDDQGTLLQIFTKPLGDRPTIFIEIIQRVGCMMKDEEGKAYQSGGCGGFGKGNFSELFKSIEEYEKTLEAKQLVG

Structure (SMILES): CC1(C)c2cccnc2C(O)=C(c2ccc(Cl)nc2Cl)S1(=O)=O [Inhibitor 2, 7-(2,6-dichloro-3-pyridyl)-5,5-dimethyl-6,6-dioxo-thiopyrano[4,3-b]pyridin-8-ol]
- Normalized tolerance index TI [1]: 2.8
- Injury evaluation, scale of 1-100, bleaching phenotype ([2]; 2.5 g/ha): 1
- Injury evaluation, scale of 1-100, bleaching phenotype ([2]; 10 g/ha): 4
- Injury evaluation, scale of 1-100, bleaching phenotype ([2]; 40 g/ha): 21
- Injury evaluation, scale of 1-100, bleaching phenotype ([3]; 2.5 g/ha): 4
- Injury evaluation, scale of 1-100, bleaching phenotype ([3]; 10 g/ha): 13
- Injury evaluation, scale of 1-100, bleaching phenotype ([3]; 40 g/ha): 4

Structure (SMILES): Cc1c(C(=O)c2cnn(C)c2O)ccc(S(C)(=O)=O)c1C1=NOCC1 [Topramezone, reference compound]
- Injury evaluation, scale of 1-100, bleaching phenotype ([2]; 6.25 g/ha): 10
- Injury evaluation, scale of 1-100, bleaching phenotype ([2]; 25 g/ha): 17
- Injury evaluation, scale of 1-100, bleaching phenotype ([2]; 100 g/ha): 21
- Injury evaluation, scale of 1-100, bleaching phenotype ([3]; 6.25 g/ha): 0
- Injury evaluation, scale of 1-100, bleaching phenotype ([3]; 25 g/ha): 0
- Injury evaluation, scale of 1-100, bleaching phenotype ([3]; 100 g/ha): 1

Structure (SMILES): CC1=NOC(c2c(Cl)ccc(C3=C(O)c4ncccc4C(C)(C)S3(=O)=O)c2Cl)C1 (centres unmarked) [Inhibitor 1, 7-[2,4-dichloro-3-(3-methyl-4,5-dihydroisoxazol-5-yl)phenyl]-5,5-dimethyl-6,6-dioxo-thiopyrano[4,3-b]pyridin-8-ol]
- Normalized tolerance index TI [1]: 1.9
